Measured values: ChEMBL document CHEMBL1201862, “PubChem BioAssay data set” (2004)
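Growth conditions: 96-well plates. Treatment: test compound, 48 hours, 5 concentrations. Analysis: linear interpolation between bracketing concentrations; unreached endpoints set to highest concentration. GI50 marks 50% less growth.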 Active and inactive are the calls of the source. Rule as the data show it: active = GI50 up to about 1.1 µM and inactive = higher.

Assays:
Assay in all cases: DTP human tumour cell line panel, 48 h
OVCAR-8 = tested on: OVCAR-8
CAKI-1 = tested on: CAKI-1
HT-29 = tested on: HT-29
SK-MEL-28 = tested on: SK-MEL-28
SK-MEL-2 = tested on: SK-MEL-2
SW-620 = tested on: SW-620
KM-20L2 = tested on: KM-20L2
U-251 = tested on: U-251
NCI-H522 = tested on: NCI-H522
HOP-62 = tested on: HOP-62
HCC 2998 = tested on: HCC 2998
HOP-92 = tested on: HOP-92
SF-268 = tested on: SF-268
OVCAR-3 = tested on: OVCAR-3
COLO 205 = tested on: COLO 205
SF-539 = tested on: SF-539
HCT-15 = tested on: HCT-15
MDA-MB-435 = tested on: MDA-MB-435
CCRF-CEM = tested on: CCRF-CEM
Malme-3M = tested on: Malme-3M

Measured: GI50

COc1ccc(CC2NCCc3cc(OC)c(OC)cc32)cc1Br (configuration not stated)
inactive: OVCAR-8 50.2 µM | CAKI-1 19.7 µM | HT-29 19.1 µM | SK-MEL-28 16.6 µM | SK-MEL-2 27.2 µM | SW-620 30.9 µM | KM-20L2 25.8 µM | U-251 34.4 µM | NCI-H522 34.4 µM | HOP-62 35.6 µM | HCC 2998 18 µM | HOP-92 15.1 µM | SF-268 63.5 µM | OVCAR-3 76.6 µM | COLO 205 16.8 µM | SF-539 77.8 µM | MDA-MB-435 25.1 µM | CCRF-CEM 29.2 µM | Malme-3M 17.3 µM
> 100 µM: HCT-15

Nc1nc(F)nc2c1ncn2C1OC(COP(=O)(O)O)C(O)C1O (configuration not stated)
inactive: OVCAR-8 2.91 µM | CAKI-1 8.17 µM | HT-29 310 µM | SK-MEL-28 58.1 µM | SK-MEL-2 31.4 µM | SW-620 64.9 µM | KM-20L2 105 µM | U-251 231 µM | NCI-H522 63.1 µM | HOP-62 8.53 µM | HCC 2998 177 µM | HOP-92 7.38 µM | SF-268 76 µM | OVCAR-3 119 µM | COLO 205 95.1 µM | SF-539 146 µM | MDA-MB-435 11.9 µM | CCRF-CEM 1.59 µM | Malme-3M 23.3 µM
175 µM: HCT-15

COc1cc2c(c(OC)c1OC)-c1ccc(SC)c(=O)cc1C(CO)C2 (configuration not stated)
active: OVCAR-8 0.188 µM | CAKI-1 0.634 µM | HT-29 0.134 µM | SK-MEL-28 0.0735 µM | SK-MEL-2 0.209 µM | SW-620 0.167 µM | KM-20L2 0.157 µM | U-251 0.246 µM | NCI-H522 0.0527 µM | HOP-62 0.233 µM | HCC 2998 0.185 µM | HOP-92 0.451 µM | SF-268 0.146 µM | OVCAR-3 0.164 µM | COLO 205 0.166 µM | SF-539 0.143 µM | CCRF-CEM 0.0891 µM | Malme-3M 0.0811 µM
0.227 µM: HCT-15

CN(C)[C@H]1CC[C@H]2[C@@H]3CCC4C[C@@H](NC(=O)NC(Cc5ccccc5)c5nccs5)CC[C@]4(C)[C@H]3CC[C@]12C (some centres not stated)
inactive: CAKI-1 1.7 µM | KM-20L2 1.19 µM | NCI-H522 2 µM | HCC 2998 1.75 µM | HOP-92 1.53 µM | SF-268 1.66 µM | SF-539 1.75 µM | Malme-3M 1.85 µM
active: OVCAR-8 0.667 µM | HT-29 0.33 µM | SK-MEL-28 1.11 µM | SK-MEL-2 1.1 µM | SW-620 0.687 µM | U-251 0.698 µM | HOP-62 0.826 µM | OVCAR-3 0.853 µM | COLO 205 0.82 µM | MDA-MB-435 0.51 µM | CCRF-CEM 0.29 µM
0.687 µM: HCT-15

O=CC(O)C(O)C(O)COc1cc(CO)cc2c1C(=O)c1ccccc1C2=O (configuration not stated)
> 100 µM: HCT-15
inactive: OVCAR-8 > 100 µM | CAKI-1 > 93.8 µM | HT-29 > 100 µM | SK-MEL-28 > 100 µM | SK-MEL-2 > 95.5 µM | SW-620 > 100 µM | KM-20L2 > 100 µM | U-251 > 100 µM | NCI-H522 > 100 µM | HOP-62 > 100 µM | HCC 2998 > 100 µM | HOP-92 > 100 µM | SF-268 > 100 µM | OVCAR-3 76.4 µM | COLO 205 > 100 µM | SF-539 > 100 µM | CCRF-CEM > 100 µM | Malme-3M 98.9 µM

C=CC/C=C/C/C=C/CCCCCCCc1cccc(O)c1C(=O)O
inactive: OVCAR-8 > 100 µM | CAKI-1 32.1 µM | HT-29 48.8 µM | SK-MEL-28 32.7 µM | SK-MEL-2 49 µM | SW-620 45.9 µM | KM-20L2 86.1 µM | U-251 19.7 µM | NCI-H522 39.5 µM | HOP-62 14.4 µM | HCC 2998 58.7 µM | HOP-92 23.7 µM | SF-268 24.3 µM | OVCAR-3 35.4 µM | COLO 205 > 100 µM | SF-539 69.5 µM | CCRF-CEM 30.3 µM | Malme-3M 47.6 µM
48 µM: HCT-15
